As usually defined, the inhibition is how much of the control response was suppressed.

The record followed here is ChEMBL document CHEMBL5390237, “Discovery of Selective Histone Deacetylase 1 and 2 Inhibitors: Screening of a Focused Library Constructed by Click Chemistry, Kinetic Binding Analysis, and Biological Evaluation” (J Med Chem, 2023).

Sequence of Histone deacetylase 2 (Q92769 whole entry): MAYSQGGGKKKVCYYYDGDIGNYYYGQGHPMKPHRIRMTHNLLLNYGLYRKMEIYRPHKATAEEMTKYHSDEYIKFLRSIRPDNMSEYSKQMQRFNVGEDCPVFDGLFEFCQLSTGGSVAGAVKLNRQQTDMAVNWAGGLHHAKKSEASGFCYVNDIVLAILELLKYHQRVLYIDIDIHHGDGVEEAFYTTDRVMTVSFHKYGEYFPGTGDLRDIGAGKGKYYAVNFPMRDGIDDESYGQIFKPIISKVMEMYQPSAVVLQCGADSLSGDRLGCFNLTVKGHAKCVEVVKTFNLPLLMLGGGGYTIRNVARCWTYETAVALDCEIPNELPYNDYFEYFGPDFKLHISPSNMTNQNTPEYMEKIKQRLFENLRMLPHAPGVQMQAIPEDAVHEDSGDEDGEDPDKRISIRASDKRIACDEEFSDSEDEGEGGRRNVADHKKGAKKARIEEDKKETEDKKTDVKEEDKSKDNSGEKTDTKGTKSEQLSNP

This experiment addresses Histone deacetylase 2 (Homo sapiens, UniProt Q92769). The experiment in a line: Inhibition of full-length recombinant human C-terminal GST tagged HDAC2 expressed in Sf9 insect cells using aminoluciferin peptide substrate at 100 nM preincubated for 3 hrs followed by substrate addition and measured after 30 mins by HDAC-Glo I/II chemiluminescence assay. The note with it: time 3.5 hrs.
In the case of `Nc1ccc(-c2cccnc2)cc1NC(=O)CCc1cn(Cc2ccc(OC(F)(F)F)cc2)nn1`, the inhibition was 3%. Turning to `Nc1ccc(-c2ccsc2)cc1NC(=O)CCc1cn(CC(=O)c2ccccc2)nn1`, the inhibition worked out at 12%. With `Nc1ccc(-c2ccsc2)cc1NC(=O)c1cn(-c2ccc(O)cc2)nn1` the figure was 2%; with `Nc1ccc(-c2cccs2)cc1NC(=O)c1cccc(-c2cn(CC34CC5CC(CC(C5)C3)C4)nn2)c1`, 0%; with `Nc1ccc(-c2cccs2)cc1NC(=O)c1ccc(-c2cn(CCCCCc3ccccc3)nn2)cc1`, 0%. With `Nc1ccc(-c2ccccc2)cc1NC(=O)c1cn(-c2cccc3ccccc23)nn1` the figure was 0%; with `Nc1ccc(-c2cccs2)cc1NC(=O)c1ccc(-c2cn(Cc3ccc(C(=O)O)cc3)nn2)s1`, 61%. With `Nc1ccc(-c2ccc(F)cc2)cc1NC(=O)CCc1cn(-c2ccc(Br)cc2)nn1` the figure was 0%; with `Nc1ccc(-c2ccccc2)cc1NC(=O)CCc1cn(CCc2c[nH]c3ccccc23)nn1`, 20%. With `Nc1ccc(-c2cccs2)cc1NC(=O)c1ccc(-c2cn(CCc3cccc([N+](=O)[O-])c3)nn2)s1`, the inhibition was 23%. As to `Nc1ccc(-c2ccsc2)cc1NC(=O)c1cn(CCN2CCc3ccccc3C2)nn1`, the inhibition is 18%. As to `Nc1ccc(-c2ccc(F)cc2)cc1NC(=O)c1cn(CCc2ccccc2Cl)nn1`, the inhibition stood at 0%. For the compound `Nc1ccc(-c2ccccc2)cc1NC(=O)CCc1cn(CCc2cccc(F)c2)nn1`, the inhibition is 1%.

Consider `Nc1ccc(-c2ccccc2)cc1NC(=O)CCc1cn(CCCc2ccccc2)nn1`, for which the inhibition is 9%. For the compound `Nc1ccc(-c2cccs2)cc1NC(=O)c1ccc(-c2cn(Cc3ccc(OC(F)(F)F)cc3)nn2)s1`, the inhibition came out at 0%. With `Nc1ccc(-c2cccs2)cc1NC(=O)CCc1cn(CS(=O)(=O)c2ccccc2)nn1` the figure was 15%; with `Nc1ccc(-c2ccccc2)cc1NC(=O)CCc1cn(C[S+]([O-])c2ccccc2)nn1` (stereo not given), 8%. With `Nc1ccc(-c2ccsc2)cc1NC(=O)c1cn(CCCCCC(=O)O)nn1` the figure was 0%; with `Nc1ccc(-c2cccnc2)cc1NC(=O)CCc1cn(CCc2cccc(F)c2)nn1`, 13%. Turning to `COc1ccc(CCn2cc(-c3ccc(C(=O)Nc4cc(-c5cccs5)ccc4N)s3)nn2)cc1`, the inhibition came out at 30%. As to `Nc1ccc(-c2cccs2)cc1NC(=O)c1cccc(-c2cn(Cc3cccc4ccccc34)nn2)c1`, the inhibition amounted to 14%. For `Nc1ccc(-c2ccsc2)cc1NC(=O)c1cn(CCc2ccccc2)nn1`, the inhibition came out at 17%. As for `Nc1ccc(-c2cccs2)cc1NC(=O)CCc1cn(CCc2cccc([N+](=O)[O-])c2)nn1`, the inhibition stood at 27%. As to `Nc1ccc(-c2cccs2)cc1NC(=O)CCc1cn(CCc2ccccc2C(F)(F)F)nn1`, the inhibition stood at 0%. On to `Nc1ccc(-c2cccs2)cc1NC(=O)c1ccc(-c2cn(Cc3ccc4ccccc4c3)nn2)cc1`, for which the inhibition worked out at 12%. Consider `Nc1ccc(-c2ccsc2)cc1NC(=O)c1cn(CCCCCCCC(=O)O)nn1`, for which the inhibition amounted to 10%. The same measure for `Nc1ccc(-c2ccc(F)cc2)cc1NC(=O)CCc1cn(-c2ccc(I)cc2)nn1`: 0%; for `Nc1ccc(-c2ccccc2)cc1NC(=O)c1cn(Cc2ccc(C(=O)O)cc2)nn1`: 27%. In the case of `Nc1ccc(-c2cccs2)cc1NC(=O)c1ccc(-c2cn(Cc3cccc4ccccc34)nn2)s1`, the inhibition was 13%. The same measure for `Nc1ccc(-c2cccnc2)cc1NC(=O)CCc1cn(-c2cccc3ccccc23)nn1`: 0%; for `Nc1ccc(-c2cccnc2)cc1NC(=O)CCc1cn(CCc2ccccc2Cl)nn1`: 9%; for `Nc1ccc(-c2cccs2)cc1NC(=O)c1cccc(-c2cn(CC3CCCCC3)nn2)c1`: 0%.

`Nc1ccc(-c2ccccc2)cc1NC(=O)c1cn(CCc2ccccc2[N+](=O)[O-])nn1`: the inhibition was determined as 0%. Regarding `Nc1ccc(-c2ccsc2)cc1NC(=O)c1cn(CCc2cccc([N+](=O)[O-])c2)nn1`, the inhibition is 1%. `Nc1ccc(-c2ccccc2)cc1NC(=O)c1cn(Cc2ccc(Oc3ccccc3)cc2)nn1`: the inhibition is 0%. The same measure for `Nc1ccc(-c2ccc(F)cc2)cc1NC(=O)CCc1cn(CCCCCCC(=O)O)nn1`: 6%; for `Nc1ccc(-c2ccccc2)cc1NC(=O)CCc1cn(CCCCCc2ccccc2)nn1`: 0%. Take `Nc1ccc(-c2ccccc2)cc1NC(=O)c1cn(CC23CC4CC(CC(C4)C2)C3)nn1`: the inhibition is 0%. With `Nc1ccc(-c2cccnc2)cc1NC(=O)CCc1cn(CCCCCCCC(=O)O)nn1`, the inhibition was determined as 0%. Take `COc1ccc(CCn2cc(-c3cccc(C(=O)Nc4cc(-c5cccs5)ccc4N)c3)nn2)cc1`: the inhibition was 1%.

Regarding `Nc1ccc(-c2cccs2)cc1NC(=O)c1cccc(-c2cn(Cc3cc4ccccc4s3)nn2)c1`, the inhibition was found to be 0%. Consider `COc1ccccc1CCn1cc(CCC(=O)Nc2cc(-c3cccs3)ccc2N)nn1`, for which the inhibition was determined as 12%. Consider `Nc1ccc(-c2cccs2)cc1NC(=O)c1ccc(-c2cn(CC(=O)c3ccccc3)nn2)s1`, for which the inhibition was found to be 22%. With `Nc1ccc(-c2cccs2)cc1NC(=O)c1cccc(-c2cn(CCN3CCOCC3)nn2)c1` the figure was 48%. In the case of `Nc1ccc(-c2ccc(F)cc2)cc1NC(=O)c1cn(CCc2ccc(Cl)cc2)nn1`, the inhibition worked out at 0%. Take `Nc1ccc(-c2cccs2)cc1NC(=O)c1ccc(-c2cn(CCc3cccc4ccccc34)nn2)cc1`: the inhibition was 0%. With `Nc1ccc(-c2ccccc2)cc1NC(=O)c1cn(/C=C/c2ccccc2)nn1` the figure was 3%; with `Nc1ccc(-c2cccs2)cc1NC(=O)c1ccc(-c2cn(Cc3cccc(-c4ccccc4)c3)nn2)s1`, 0%. Take `Nc1ccc(-c2ccccc2)cc1NC(=O)CCc1cn(CC(=O)c2ccccc2)nn1`: the inhibition is 18%.

In the case of `Nc1ccc(-c2ccccc2)cc1NC(=O)c1cn(CCCCCCC(=O)O)nn1`, the inhibition turned out to be 0%. Turning to `Nc1ccc(-c2cccs2)cc1NC(=O)c1ccc(-c2cn(Cc3cc4ccccc4s3)nn2)s1`, the inhibition worked out at 0%. Consider `Nc1ccc(-c2cccs2)cc1NC(=O)c1cccc(-c2cn(-c3cccc4ccccc34)nn2)c1`, for which the inhibition is 0%. As to `Nc1ccc(-c2ccc(F)cc2)cc1NC(=O)CCc1cn(Cc2cccc(-c3ccccc3)c2)nn1`, the inhibition worked out at 0%. Consider `Cc1ccc(-n2cc(-c3ccc(C(=O)Nc4cc(-c5cccs5)ccc4N)cc3)nn2)cc1C`, for which the inhibition was 0%. `Nc1ccc(-c2ccc(F)cc2)cc1NC(=O)CCc1cn(CCN2CCOCC2)nn1`: the inhibition is 0%.

Consider `Nc1ccc(-c2ccc(F)cc2)cc1NC(=O)CCc1cn(Cc2ccc(C(=O)O)cc2)nn1`, for which the inhibition was 39%. Turning to `Nc1ccc(-c2cccs2)cc1NC(=O)c1cccc(-c2cn(Cc3ccc(-c4ccccc4)cc3)nn2)c1`, the inhibition is 0%.

With `Nc1ccc(-c2ccccc2)cc1NC(=O)c1cn(CCCc2ccccc2)nn1`, the inhibition amounted to 6%. With `Nc1ccc(-c2ccccc2)cc1NC(=O)CCc1cn(CCC2CCCCC2)nn1` the figure was 0%; with `Nc1ccc(-c2ccsc2)cc1NC(=O)CCc1cn(CCc2ccccc2C(F)(F)F)nn1`, 0%.
